Among the data in patent US7649093B2, “Naphthalene compounds as selective estrogen receptor modulators” (Glaxo Smith Kline LLC, priority 2004, dated 2010) are melting point values, retold here.

Structures are written as SMILES.

In the case of `Cc1cc2ccccc2c(Oc2ccc(/C=C/C(=O)O)cc2)c1-c1ccccc1` [Example 15, (2E)-3-{4-[(3-Methyl-2-phenyl-1-naphthalenyl)oxy]phenyl}-2-propenoic acid], the melting point lay within 224 to 225 °C.

Consider `O=C(O)/C=C/c1ccc(Oc2c(-c3ccccc3)c(CCC(F)(F)F)cc3cc(O)ccc23)cc1` [Example 19, (2E)-3-(4-{[6-Hydroxy-2-phenyl-3-(3,3,3-trifluoropropyl)-1-naphthalenyl]oxy}phenyl)-2-propenoic acid], for which the melting point was 118 to 120 °C. For the compound `CCc1cc2cc(O)ccc2c(Oc2ccc(/C=C/C(=O)O)cc2)c1-c1ccccc1` [Example 11, (2E)-3-{4-[(3-Ethyl-6-hydroxy-2-phenyl-1-naphthalenyl)oxy]phenyl}-2-propenoic acid], the melting point lay in the range of 188 to 190 °C. Compound `CCCCc1cc2ccccc2c(Oc2ccc(/C=C/C(=O)O)cc2)c1-c1ccccc1` [Example 26, (2E)-3-{4-[(3-Butyl-2-phenyl-1-naphthalenyl)oxy]phenyl}-2-propenoic acid] gave a melting point of 160 to 161 °C. The result for `O=C(O)c1ccc(Oc2c(-c3ccc(O)cc3)c(C(F)(F)F)cc3ccccc23)cc1` [Example 28, 4-{[2-(4-Hydroxyphenyl)-3-(trifluoromethyl)-1-naphthalenyl]oxy}benzoic acid] reads 244 to 245 °C. `CCCCc1cc2ccccc2c(Oc2ccc(/C=C/C(=O)O)cc2)c1-c1ccc(O)cc1`: the melting point was 107 to 109 °C. The result for `CCCc1cc2cc(O)c(F)cc2c(Oc2ccc(/C=C/C(N)=O)cc2)c1-c1ccccc1` [Example 25, (2E)-3-{4-[(7-Fluoro-6-hydroxy-2-phenyl-3-propyl-1-naphthalenyl)oxy]phenyl}-2-propenamide] reads 121 to 124 °C. The result for `CCCc1cc2cc(O)c(F)cc2c(Oc2ccc(/C=C/C(=O)O)cc2)c1-c1ccccc1` [Example 20, (2E)-3-{4-[(7-Fluoro-6-hydroxy-2-phenyl-3-propyl-1-naphthalenyl)oxy]phenyl}-2-propenoic acid] reads 118 to 120 °C; that for `CC(C)c1cc2cc(O)ccc2c(Oc2ccc(/C=C/C(=O)O)cc2)c1-c1ccccc1` [Example 13, (2E)-3-(4-{[6-Hydroxy-3-(1-methylethyl)-2-phenyl-1-naphthalenyl]oxy}phenyl)-2-propenoic acid], 198 to 199 °C; that for `CCCc1cc2cc(O)ccc2c(Oc2ccc(/C=C/C(=O)O)cc2)c1-c1ccccc1` [Example 16, (2E)-3-{4-[(6-Hydroxy-2-phenyl-3-propyl-1-naphthalenyl)oxy]phenyl}-2-propenoic acid], 120 to 122 °C.

As for `CCCCc1cc2ccccc2c(Oc2ccc(/C=C/C(=O)O)cc2)c1-c1ccc(F)cc1` [Example 24, (2E)-3-(4-{[3-Butyl-2-(4-fluorophenyl)-1-naphthalenyl]oxy}phenyl)-2-propenoic acid], the melting point fell in the range of 169 to 170 °C. The same measure for `CCCCCCCCc1cc2cc(O)ccc2c(Oc2ccc(/C=C/C(=O)O)cc2)c1-c1ccccc1` [Example 29, (2E)-3-{4-[(6-Hydroxy-3-octyl-2-phenyl-1-naphthalenyl)oxy]phenyl}-2-propenoic acid]: 163 to 164 °C; for `O=C(O)/C=C/c1ccc(Oc2c(-c3ccccc3)c(C(F)(F)F)cc3ccccc23)cc1` [Example 27, (2E)-3-(4-{[2-Phenyl-3-(trifluoromethyl)-1-naphthalenyl]oxy}phenyl)-2-propenoic acid]: 210 to 211 °C; for `O=C(O)/C=C/c1ccc(Oc2c(-c3ccccc3)c(C3CC3)cc3cc(O)ccc23)cc1` [Example 22, (2E)-3-{4-[(3-Cyclopropyl-6-hydroxy-2-phenyl-1-naphthalenyl)oxy]phenyl}-2-propenoic acid]: 242 to 243 °C. The same measure for `COCc1cc2ccccc2c(Oc2ccc(/C=C/C(=O)O)cc2)c1-c1ccccc1`: 76 to 79 °C; for `Cc1cc2cc(O)ccc2c(Oc2ccc(/C=C/C(=O)O)cc2)c1-c1ccc(O)cc1` [Example 10, (2E)-3-(4-{[6-Hydroxy-2-(4-hydroxyphenyl)-3-methyl-1-naphthalenyl]oxy}phenyl)-2-propenoic acid]: 162 to 164 °C; for `CC(C)Cc1cc2cc(O)ccc2c(Oc2ccc(/C=C/C(=O)O)cc2)c1-c1ccccc1` [Example 17, (2E)-3-(4-{[6-Hydroxy-3-(2-methylpropyl)-2-phenyl-1-naphthalenyl]oxy}phenyl)-2-propenoic acid]: 126 to 128 °C.

Compound `CCc1cc2cc(O)ccc2c(Oc2ccc(/C=C/C(=O)N3CCN(C)CC3)cc2)c1-c1ccccc1` [Example 12, 7-Ethyl-5-({4-[(1E)-3-(4-methyl-1-piperazinyl)-3-oxo-1-propen-1-yl]phenyl}oxy)-6-phenyl-2-naphthalenol] registered a melting point of 195 to 196 °C.

Take `CCCCc1cc2cc(O)ccc2c(Oc2ccc(/C=C/C(=O)O)cc2)c1-c1ccccc1` [Example 14, (2E)-3-{4-[(3-Butyl-6-hydroxy-2-phenyl-1-naphthalenyl)oxy]phenyl}-2-propenoic acid]: the melting point lay within 128 to 130 °C. `CCCCCc1cc2cc(O)ccc2c(Oc2ccc(/C=C/C(=O)O)cc2)c1-c1ccccc1` [Example 18, (2E)-3-{4-[(6-Hydroxy-3-pentyl-2-phenyl-1-naphthalenyl)oxy]phenyl}-2-propenoic acid] had a melting point of 110 to 113 °C.
